{"source": "paper PMC5059489", "about": "“Mechanistic evaluation and transcriptional signature of a glutathione S-transferase omega 1 inhibitor” (Nature Communications, 2016)", "key": {"[1]": {"test_system": "NCIADR Res", "assay": "MTT cytotoxicity GI50, NCI-ADR/Res", "type": "cell-based", "details": "Homo sapiens, NCI/ADR-RES", "source_text": "Colon cancer cell line HCT116 was generously provided by Dr Bert Vogelstein, Johns Hopkins Medical Institutions, Baltimore, MD. Pancreatic cancer cell line Panc-1 was obtained from Dr Alan Epstein, University of Southern California. All other cell lines were purchased from the American Type Culture Collection (Manassas, VA). MDA-MB-435 cell line was used in the GSTO1 knockdown experiment as it had high GSTO1 expression (Supplementary Fig. 17). We also tested active compounds in NCI-ADR/Res cell line since GSTO1 is implicated in drug resistance. Cell lines were cultured in RPMI 1640 or […] supplemented with 10% fetal bovine serum at 37 °C in a humidified atmosphere of 5% CO2. All cell lines were maintained in culture under 30 passages and tested regularly for Mycoplasma contamination using PlasmoTest (InvivoGen, San Diego, CA, USA).\nCell proliferation was assessed by a MTT assay. Cancer cells were seeded in 96-well microtitre plates and, after overnight attachment, treated with GSTO1 inhibitors. After 72 h, MTT solution (3 mg ml^−1; 20 μl) was added to each well and cells were incubated for 3 h at 37 °C. After incubation, media from each well was removed and the dark blue formazan crystals formed by live cells were dissolved in DMSO (150 μl per well). The absorbance intensity was measured at 570 nm on a microplate reader (Molecular Devices, Sunnyvale, CA, USA). Cell viability after 24 h treatment was assessed using ApoTox-Glo triplex assay (Promega) according to the manufacturer's protocol. At least three independent dose–response experiments with each concentration tested in triplicate were performed for each cell line."}, "[2]": {"molecular_target": "PDI (Homo sapiens, UniProt P07237)", "sequence (P07237 18-508)": "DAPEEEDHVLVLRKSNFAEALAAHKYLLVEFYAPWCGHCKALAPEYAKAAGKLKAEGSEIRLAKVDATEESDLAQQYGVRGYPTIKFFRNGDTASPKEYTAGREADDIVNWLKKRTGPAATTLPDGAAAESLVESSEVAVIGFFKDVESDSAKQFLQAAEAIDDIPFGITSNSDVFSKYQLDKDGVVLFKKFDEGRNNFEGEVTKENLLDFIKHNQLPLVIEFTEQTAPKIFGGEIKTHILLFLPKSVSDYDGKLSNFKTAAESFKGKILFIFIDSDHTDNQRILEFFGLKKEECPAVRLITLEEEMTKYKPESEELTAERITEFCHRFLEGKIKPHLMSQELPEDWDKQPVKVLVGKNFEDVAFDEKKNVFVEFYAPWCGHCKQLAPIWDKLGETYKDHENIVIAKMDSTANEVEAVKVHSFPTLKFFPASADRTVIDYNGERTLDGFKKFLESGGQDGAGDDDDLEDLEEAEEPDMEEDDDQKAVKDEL", "assay": "Cellular thermal-shift assay, PDI", "type": "binding", "set-up": "endogenous in cells; host or cells: HCT116 p53+/+ cell lysate", "details": "HCT116p53+/+ cell lysate", "procedure": "Cellular thermal-shift assay was performed as described previously. Briefly, HCT116^p53+/+ cells were collected, washed with PBS and diluted with cell lysis buffer (25 mM Tris-HCl (pH 7.5) and 10 mM MgCl2) supplemented with complete protease inhibitor cocktail. The cell suspension was frozen and thawed three times in liquid nitrogen. The soluble fraction was separated from debris by spinning down at 20,000g for 20 min. […] After 30 min incubation at room temperature, the treated lysates were further divided into smaller aliquots (50 μl), which were then heated at different temperatures for 3 min on a Veriti thermal cycler (Applied Biosystems) followed by cooling for 3 min to room temperature. The heated lysates were centrifuged at 20,000g for 20 min at 4°C to separate the soluble fractions from precipitates. Supernatants were quantified and analysed by western blotting.\nSupplementary Fig. 11. Target engagement by C1-27. (a-c) CETSA melt curves for GSTO1 (a ), PDI (b ) and Keap1 (c) in HCT116p53+/+ cell lysate treated with C1-27 (100 µM). 1% DMSO was used as control.\nData presented are mean ± SD of 3 independent experiments. A negative shift in the melting curves was […]\n(Below) Representative western blots showing soluble fractions of the target proteins following drug treatment and heating. […]"}}, "data": [{"smiles": "CN(C)S(=O)(=O)c1cc(NC(=O)CCl)ccc1Cl", "note": "[C1-27]", "values": [{"measurement": "GI50", "setting": "[1]", "value": 3.7, "unit": "µM"}, {"measurement": "CETSA thermal shift of PDI", "setting": "[2]; 10 µM and 1 µM", "value": "no shift"}, {"measurement": "CETSA thermal shift of PDI", "setting": "[2]; 100 µM", "value": "thermal shift"}]}]}
